Experimental data taken from patent US10011614B2, “Bis-β-carboline compound and preparation method, pharmaceutical composition and use thereof” (XINJIANG HUASHIDAN PHARMACEUTICAL RESEARCH CO., LTD., priority 2012, dated 2018).

Key:
[1] = system: BGC (human gastric cancer cells); experiment: Antitumor screening in vitro, MTT assay, BGC; assay type: cell-based; settings: Homo sapiens, 48 hours
Protocol: (§1) Cell lines: BGC (human gastric cancer cells), A375 (human malignant melanoma cells), 769-P (human renal carcinoma cells), KB (human oral epidermoid carcinoma cells), SK-OV-3 (human ovarian cancer cells), etc, were selected, and the test method was the MTT assay. Cisplatin was as a positive control.
(§2) Specific methods are as follows: cells growing well in the logarithmic phase were seeded in 96-well plates at a concentration of 1×10^4 cells/ml, and then were placed in 37° C., containing 5% CO2 incubator for 24 hours. After discarding the old solution, changed fresh medium, and added sterilization treatment compound, and then cultured for 48 hours. After discarding the culture medium, 20 ul RPMI1640 medium containing 5 mg/ml MTT were added to each well in 96-well plates and cells were cultured for 4 hours. After the supernatant was carefully removed, 100 μl DMSO was added to each well, and the plates were Oscillated about 10 min to dissolve the precipitate, followed by detecting OD value in wavelength 490 nm by the microplate reader. Cell survival rate for each sample concentrations was determined by the following formula: The mean survival rate %=the average OD value of sample group/the average OD value of control group×100%
(§3) Morphological studies by mapping with the logarithm of the drug concentration and the mean survival rate % of each sample to obtain IC50 values for each sample.

[2] = system: A375 (human malignant melanoma cells); experiment: Antitumor screening in vitro, MTT assay, A375; assay type: cell-based; settings: Homo sapiens, A-375, 48 hours
Protocol: as §1, §2, §3

[3] = system: 769-P (human renal carcinoma cells); experiment: Antitumor screening in vitro, MTT assay, 769-P; assay type: cell-based; settings: Homo sapiens, 48 hours, 769-P cells
Protocol: as §1, §2, §3

[4] = system: KB (human oral epidermoid carcinoma cells); experiment: Antitumor screening in vitro, MTT assay, KB; assay type: cell-based; settings: Homo sapiens, 48 hours
Protocol: as §1, §2, §3

[5] = system: SK-OV-3 (human ovarian cancer cells); experiment: Antitumor screening in vitro, MTT assay, SK-OV-3; assay type: cell-based; settings: Homo sapiens, 48 hours, SK-OV-3 cells
Protocol: as §1, §2, §3

in vivo = settings: both, Kunming, mouse, in vivo, ip
Protocol: Solvent: 0.9% saline and 0.5% CMC-Na solution. According to pre-test results, design 5 dose gradient for each sample, dose spacing was 0.8 times. […] Experimental volume is 0.5 ml/20 g mouse. A single intraperitoneal administration is used. Kunming mice were taken and grouped randomly by gender, and intraperitoneal administration according to dose designation was set to observe the immediate reaction after administration in mice. Dead animals were dissected to observe, surviving animals continued to observe two weeks, and the animal deaths in two weeks were recorded. After two weeks, surviving animals were dissected, observed substantial organ lesions, and the organs having substantive lesions were further for histological examination. According to the number of deaths in each group of animals, calculating the median lethal dose (LD50 value) by Bliss method, and further, calculating the maximum tolerated dose (MTD) for less toxic compounds.

Row | Compound | IC50 [1] [µM] | IC50 [2] [µM] | IC50 [3] [µM] | IC50 [4] [µM] | IC50 [5] [µM] | melting point [°C] | LD50 at 2 weeks (in vivo) [mg/kg]
1 | Cc1nccc2c3ccccc3n(CCCCCCCCn3c4ccccc4c4ccnc(C)c43)c12 [Compound 11, 1,8-bis(1-methyl-β-carboline-9-yl) octane] | > 300 | > 300 | 3.1 | > 300 | > 300 |  | 200
2 | Cc1nccc2c3cc(Br)ccc3n(CCCCCCn3c4ccc(Br)cc4c4ccnc(C)c43)c12 [Compound 22, 1,6-bis(6-bromo-1-methyl-β-carboline-9-yl) hexane] | > 300 | > 300 | > 300 | > 300 | 63.4 |  | 200
3 | Cc1nccc2c3ccccc3n(CCCCCCCCCn3c4ccccc4c4ccnc(C)c43)c12 [Compound 12, 1,9-bis(1-methyl-β-carboline-9-yl) nonane] | > 300 | 67.2 | 291 | > 300 | 61.9 | 155 to 156 | 
4 | c1ccc2c(c1)c1ccncc1n2CCCCCCCCn1c2ccccc2c2ccncc21 [Compound 5, 1,8-bis(β-carboline-9-yl) octane] | > 300 | 285 | > 300 | > 300 | 33.5 | 180 to 181 | 
5 | Cc1nccc2c3ccccc3n(CCCCCn3c4ccccc4c4ccnc(C)c43)c12 [Compound 8, 1,5-bis(1-methyl-β-carboline-9-yl)pentane] | > 300 | > 300 | > 300 | > 300 | 18.8 | 213 to 214 | 
6 | c1ccc2c(c1)c1ccnc(-c3ccsc3)c1n2CCCCCCn1c2ccccc2c2ccnc(-c3ccsc3)c21 [Compound 33, 1,6-bis[1-(3-thienyl)-β-carboline-9-yl) hexane] | > 300 | > 300 | > 300 | > 300 | 67.6 | 198 to 199 | 
7 | CCCCOc1ccc2c3ccnc(C)c3n(CCCCn3c4cc(OCCCC)ccc4c4ccnc(C)c43)c2c1 [Compound 23, 1,4-bis(7-n-butoxy-1-methyl-β-carboline-9-yl) butane] | 8.5 | 3.8 | > 300 | 6.8 | 5.5 | 193 to 194 | 

Continued, in another order:

Row | IC50 [1] [µM] | IC50 [2] [µM] | IC50 [3] [µM] | IC50 [4] [µM] | IC50 [5] [µM] | melting point [°C] | Compound | LD50 at 2 weeks (in vivo) [mg/kg]
8 | 75.7 | 6.2 | 65.6 | 2.8 | 7.1 |  | COc1ccc2c3ccnc(C)c3n(CCCCn3c4cc(OC)ccc4c4ccnc(C)c43)c2c1 [Compound 14, 1,4-bis(7-methoxy-1-methyl-β-carboline-9-yl) butane] | 50
9 | 134 | 38 | 149 | 87.9 | 16.9 | 189 to 190 | Cc1nccc2c3ccccc3n(CCCCCCCn3c4ccccc4c4ccnc(C)c43)c12 [Compound 10, 1,7-bis(1-methyl-β-carboline-9-yl) heptane] | 
10 | 22.3 | 13.1 | 6.5 | 6.4 | 4.8 |  | Cc1nccc2c3ccccc3n(CCCCn3c4ccccc4c4ccnc(C)c43)c12 [Compound 7, 1,4-bis(1-methyl-β-carboline-9-yl) butane] | 200
11 | 58.6 | < 1.38 | 81 | 5 | 1.7 | 180 to 181 | COc1ccc2c3ccnc(C)c3n(CCCCCn3c4cc(OC)ccc4c4ccnc(C)c43)c2c1 [Compound 15, 1,5-bis(7-methoxy-1-methyl-β-carboline-9-yl)pentane] | 
12 | 270 | 85.3 | > 300 | > 300 | 36.8 | 224 to 225 | c1cncc(-c2nccc3c4ccccc4n(CCCCn4c5ccccc5c5ccnc(-c6cccnc6)c54)c23)c1 [Compound 31, 1,4-bis[1-(pyridine-3-yl)-β-carboline-9-yl) butane] | 
